Results as given in patent publication US20260131016A1, “NOVEL AURISTATIN ANALOGS AND IMMUNOCONJUGATES THEREOF” (ADCENTRX THERAPEUTICS INC., priority 2021, published 2026).
Square brackets hold non-standard residues; d marks the D form. Peptide text beside a SMILES is read from it. * marks the point of attachment. Dolaproine = CO[C@@H]([C@@H]1CCCN1)[C@@H](C)C(=O)O; Dil = CC[C@H](C)[C@H](NC)[C@@H](CC(=O)O)OC; NMe2Val = CC(C)[C@@H](C(=O)*)N(C)C

tested on: HCC1954 breast ductal carcinoma; test: Cell viability (Cell Titer Glo 2.0) in HCC1954, 120 hours; type: cell-based; conditions: HCC1954 5-Day Assay; N-methylation of the amide between P4 and P5
Procedure: HCC1954 breast ductal carcinoma and T47D cells (ATCC, Manassas, VA, USA) were seeded into 384-well white-walled culture plates and allowed to adhere for 2-4 hours. Cells were then treated at least in duplicate by addition of 5-fold serially diluted test articles prepared at 2× final concentration and incubated at 37° C. for 120 hours. Cell viability following treatment was determined by Cell Titer Glo 2.0 Assay (Promega, Madison, WI, USA) and normalized to non-treated controls. Dose-response relationships were analyzed using GraphPad Prism (La Jolla, CA, USA), and IC50 values were derived from non-linear regression analyses using a 4-parameter logistic equation.

Compound	IC50[N—Me amide]/IC50[NH-amide]
CC[C@H](C)[C@@H]([C@@H](CC(=O)N1CCC[C@H]1[C@H](OC)[C@@H](C)C(=O)N[C@H](C)[C@@H](O)c1ccccc1)OC)N(C)C(=O)[C@@H](NC(=O)[C@H](C(C)C)N(C)C)C(C)C [Auristatin E, reference compound]	23
CC[C@H](C)[C@@H]([C@@H](CC(=O)N1CCC[C@H]1[C@H](OC)[C@@H](C)C(=O)N[C@@H](Cc1ccccc1)C(=O)OC)OC)N(C)C(=O)[C@@H](NC(=O)[C@H](C(C)C)N(C)C)C(C)C [Auristatin PHE, reference compound] (NMe2Val-V[Dil][Dolaproine]F-OMe)	139

same assay, conditions: Homo sapiens, HCC1954, 120 h, read-out: IC50 (nM), in vitro potency in HCC1954

Compound	IC50 [nM]
CC[C@H](C)[C@@H]([C@@H](CC(=O)N1CCC[C@H]1[C@H](OC)[C@@H](C)C(=O)N(C)CCc1cccc(N)c1)OC)N(C)C(=O)[C@@H](NC(=O)[C@@H](C)N(C)C)C(C)C [Compound 3, (S)-N-((3R,4S,5S)-1-((S)-2-((IR,2R)-3-((3-aminophenethyl)(methyl)amino)-1-methoxy-2-methyl-3-oxopropyl)pyrrolidin-1-yl)-3-methoxy-5-methyl-1-oxoheptan-4-yl)-2-((R)-2-(dimethylamino)propanamido)-N,3-dimethylbutanamide]	< 5
CC[C@H](C)[C@@H]([C@@H](CC(=O)N1CCC[C@H]1[C@H](OC)[C@@H](C)C(=O)N(C)CCc1cccc(N)c1)OC)N(C)C(=O)[C@@H](NC(=O)CN(C)C)C(C)C [Compound 4, (S)-N-((3R,4S,5S)-1-((S)-2-((1R,2R)-3-((3-aminophenethyl)(methyl)amino)-1-methoxy-2-methyl-3-oxopropyl)pyrrolidin-1-yl)-3-methoxy-5-methyl-1-oxoheptan-4-yl)-2-(2-(dimethylamino)acetamido)-N,3-dimethylbutanamide]	< 5
CC[C@H](C)[C@@H]([C@@H](CC(=O)N1CCC[C@H]1[C@H](OC)[C@@H](C)C(=O)N(C)CCc1cccc(N)c1)OC)N(C)C(=O)[C@@H](NC(=O)C(C)(C)CN(C)C)C(C)C [Compound 5, (S)-N-((3R,4S,5S)-1-((S)-2-((1R,2R)-3-((3-aminophenethyl)(methyl)amino)-1-methoxy-2-methyl-3-oxopropyl)pyrrolidin-1-yl)-3-methoxy-5-methyl-1-oxoheptan-4-yl)-2-(3-(dimethylamino)-2,2-dimethylpropanamido)-N,3-dimethylbutanamide]	5 to 10
CC[C@H](C)[C@@H]([C@@H](CC(=O)N1CCC[C@H]1[C@H](OC)[C@@H](C)C(=O)N(C)CCc1cccc(N)c1)OC)N(C)C(=O)[C@@H](NC(=O)[C@@H]1CCCN(C)C1)C(C)C [Compound 6, (R)-N-((S)-1-(((3R,4S,5S)-1-((S)-2-((IR,2R)-3-((3-aminophenethyl)(methyl)amino)-1-methoxy-2-methyl-3-oxopropyl)pyrrolidin-1-yl)-3-methoxy-5-methyl-1-oxoheptan-4-yl)(methyl)amino)-3-methyl-1-oxobutan-2-yl)-1-methylpiperidine-3-carboxamide]	> 10
CC[C@H](C)[C@@H]([C@@H](CC(=O)N1CCC[C@H]1[C@H](OC)[C@@H](C)C(=O)N(C)CCc1cccc(N)c1)OC)N(C)C(=O)[C@@H](NC(=O)C(C)(C)N(C)C)C(C)C [Compound 7, (S)-N-((3R,4S,5S)-1-((S)-2-((IR,2R)-3-((3-aminophenethyl)(methyl)amino)-1-methoxy-2-methyl-3-oxopropyl)pyrrolidin-1-yl)-3-methoxy-5-methyl-1-oxoheptan-4-yl)-2-(2-(dimethylamino)-2-methylpropanamido)-N,3-dimethylbutanamide]	< 5
CC[C@H](C)[C@@H]([C@@H](CC(=O)N1CCC[C@H]1[C@H](OC)[C@@H](C)C(=O)N(C)CCc1cccc(N)c1)OC)N(C)C(=O)[C@@H](NC(=O)[C@@H]1CCCN1C)C(C)C [Compound 8]	< 5
CC[C@H](C)[C@@H]([C@@H](CC(=O)N1CCC[C@H]1[C@H](OC)[C@@H](C)C(=O)N(C)CCc1cccc(N)c1)OC)N(C)C(=O)[C@@H](NC(=O)[C@H]1CCCN1C)C(C)C [Compound 9, (R)-N-((S)-1-(((3R,4S,5S)-1-((S)-2-((1R,2R)-3-((3-aminophenethyl)(methyl)amino)-1-methoxy-2-methyl-3-oxopropyl)pyrrolidin-1-yl)-3-methoxy-5-methyl-1-oxoheptan-4-yl)(methyl)amino)-3-methyl-1-oxobutan-2-yl)-1-methylpyrrolidine-2-carboxamide]	< 5
CC[C@H](C)[C@@H]([C@@H](CC(=O)N1CCC[C@H]1[C@H](OC)[C@@H](C)C(=O)N(C)CCc1cccc(N)c1)OC)N(C)C(=O)[C@@H](NC(=O)[C@@H]1CCN(C)C1)C(C)C [Compound 10, (R)-N-((S)-1-(((3R,4S,5S)-1-((S)-2-((IR,2R)-3-((3-aminophenethyl)(methyl)amino)-1-methoxy-2-methyl-3-oxopropyl)pyrrolidin-1-yl)-3-methoxy-5-methyl-1-oxoheptan-4-yl)(methyl)amino)-3-methyl-1-oxobutan-2-yl)-1-methylpyrrolidine-3-carboxamide]	> 10
CC[C@H](C)[C@@H]([C@@H](CC(=O)N1CCC[C@H]1[C@H](OC)[C@@H](C)C(=O)N(C)CCc1cccc(N)c1)OC)N(C)C(=O)[C@@H](NC(=O)[C@H]1CCCCN1C)C(C)C [Compound 11, (R)-N-((S)-1-(((3R,4S,5S)-1-((S)-2-((1R,2R)-3-((3-aminophenethyl)(methyl)amino)-1-methoxy-2-methyl-3-oxopropyl)pyrrolidin-1-yl)-3-methoxy-5-methyl-1-oxoheptan-4-yl)(methyl)amino)-3-methyl-1-oxobutan-2-yl)-1-methylpiperidine-2-carboxamide]	< 5
CC[C@H](C)[C@@H]([C@@H](CC(=O)N1CCC[C@H]1[C@H](OC)[C@@H](C)C(=O)N(C)CCc1cccc(N)c1)OC)N(C)C(=O)[C@@H](NC(=O)C1(N(C)C)CCC1)C(C)C [Compound 12, N-((S)-1-(((3R,4S,5S)-1-((S)-2-((IR,2R)-3-((3-aminophenethyl)(methyl)amino)-1-methoxy-2-methyl-3-oxopropyl)pyrrolidin-1-yl)-3-methoxy-5-methyl-1-oxoheptan-4-yl)(methyl)amino)-3-methyl-1-oxobutan-2-yl)-1-(dimethylamino)cyclobutanecarboxamide]	< 5
CC[C@H](C)[C@@H]([C@@H](CC(=O)N1CCC[C@H]1[C@H](OC)[C@@H](C)C(=O)N(C)CCc1cccc(N)c1)OC)N(C)C(=O)[C@@H](NC(=O)[C@@H]1CCCCN1C)C(C)C [Compound 13, (S)-N-((S)-1-(((3R,4S,5S)-1-((S)-2-((IR,2R)-3-((3-aminophenethyl)(methyl)amino)-1-methoxy-2-methyl-3-oxopropyl)pyrrolidin-1-yl)-3-methoxy-5-methyl-1-oxoheptan-4-yl)(methyl)amino)-3-methyl-1-oxobutan-2-yl)-1-methylpiperidine-2-carboxamide]	< 5
CC[C@H](C)[C@@H]([C@@H](CC(=O)N1CCC[C@H]1[C@H](OC)[C@@H](C)C(=O)N(C)CCc1ccccc1N)OC)N(C)C(=O)[C@@H](NC(=O)[C@@H](C(C)C)N(C)C)C(C)C [Compound 15, (S)-N-((3R,4S,5S)-1-((S)-2-((1R,2R)-3-((2-aminophenethyl)(methyl)amino)-1-methoxy-2-methyl-3-oxopropyl)pyrrolidin-1-yl)-3-methoxy-5-methyl-1-oxoheptan-4-yl)-2-((R)-2-(dimethylamino)-3-methylbutanamido)-N,3-dimethylbutanamide]	< 5
CC[C@H](C)[C@@H]([C@@H](CC(=O)N1CCC[C@H]1[C@H](OC)[C@@H](C)C(=O)N(C)CCc1ccccc1N)OC)N(C)C(=O)[C@@H](NC(=O)[C@@H](C)N(C)C)C(C)C [Compound 17, (S)-N-((3R,4S,5S)-1-((S)-2-((1R,2R)-3-((2-aminophenethyl)(methyl)amino)-1-methoxy-2-methyl-3-oxopropyl)pyrrolidin-1-yl)-3-methoxy-5-methyl-1-oxoheptan-4-yl)-2-((R)-2-(dimethylamino)propanamido)-N,3-dimethylbutanamide]	< 5
CC[C@H](C)[C@@H]([C@@H](CC(=O)N1CCC[C@H]1[C@H](OC)[C@@H](C)C(=O)N(C)CCc1ccccc1N)OC)N(C)C(=O)[C@@H](NC(=O)CN(C)C)C(C)C [Compound 18, (S)-N-((3R,4S,5S)-1-((S)-2-((1R,2R)-3-((2-aminophenethyl)(methyl)amino)-1-methoxy-2-methyl-3-oxopropyl)pyrrolidin-1-yl)-3-methoxy-5-methyl-1-oxoheptan-4-yl)-2-(2-(dimethylamino)acetamido)-N,3-dimethylbutanamide]	5 to 10
CC[C@H](C)[C@@H]([C@@H](CC(=O)N1CCC[C@H]1[C@H](OC)[C@@H](C)C(=O)N(C)CCc1ccc(N)cc1)OC)N(C)C(=O)[C@@H](NC(=O)CN(C)C)C(C)C [Compound 27, (S)-N-((3R,4S,5S)-1-((S)-2-((IR,2R)-3-((4-aminophenethyl)(methyl)amino)-1-methoxy-2-methyl-3-oxopropyl)pyrrolidin-1-yl)-3-methoxy-5-methyl-1-oxoheptan-4-yl)-2-(2-(dimethylamino)acetamido)-N,3-dimethylbutanamide]	< 5
